According to patent publication US11542235B2, “Herbicidal 3-azaspiro[5.5] undecane-8, 10-dione compounds” (SYNGENTA PARTICIPATIONS AG, priority 2018, dated 2023):

Columns and labels:
Assay type in all cases: in vivo
[1] = system: Lolium perenne (LOLPE); assay: Glasshouse herbicidal test, pre- and post-emergence, Lolium perenne; conditions: 250 g/h, evaluated after 13 days, five point scale; for percentage damage caused to the plant, LOLPE POST: post-emergence; for percentage damage caused to the plant, LOLPE PRE: pre-emergence
Description: (§1) Seeds of a variety of test species are sown in standard soil in pots (Lolium perenne (LOLPE), Setaria faberi (SETFA), Alopecurus myosuroides (ALOMY), Echinochloa crus-galli (ECHCG), Avena fatua (AVEFA)). After cultivation for one day (pre-emergence) or after 8 days cultivation (post-emergence) under controlled conditions in a glasshouse (at 24/16° C., day/night; 14 hours light; 65% humidity), the plants are sprayed with an aqueous spray solution derived from the formulation of the technical active ingredient in acetone/water (50:50) solution containing 0.5% Tween 20 (polyoxyethelyene sorbitan monolaurate, CAS RN 9005-64-5). Compounds are applied at […]. The test plants are then grown in a glasshouse under controlled conditions in a glasshouse (at 24/16° C., day/night; 14 hours light; 65% humidity) and watered twice daily. After 13 days for pre and post-emergence, the test is evaluated for the percentage damage caused to the plant. The biological activities are shown in the following table on a five point scale (5=80-100%; 4=60-79%; 3=40-59%; 2=20-39%; 1=0-19%).

[2] = system: Setaria faberi (SETFA); assay: Glasshouse herbicidal test, pre- and post-emergence, Setaria faberi; conditions: 250 g/h, evaluated after 13 days, five point scale; for percentage damage caused to the plant, SETFA POST: post-emergence; for percentage damage caused to the plant, SETFA PRE: pre-emergence
Description: as §1

[3] = system: Alopecurus myosuroides (ALOMY); assay: Glasshouse herbicidal test, pre- and post-emergence, Alopecurus myosuroides; conditions: 250 g/h, evaluated after 13 days, five point scale; for percentage damage caused to the plant, ALOMY POST: post-emergence; for percentage damage caused to the plant, ALOMY PRE: pre-emergence
Description: as §1

[4] = system: Echinochloa crus-galli (ECHCG); assay: Glasshouse herbicidal test, pre- and post-emergence, Echinochloa crus-galli; conditions: 250 g/h, evaluated after 13 days, five point scale; for percentage damage caused to the plant, ECHCG POST: post-emergence; for percentage damage caused to the plant, ECHCG PRE: pre-emergence
Description: as §1

[5] = system: Avena fatua (AVEFA); assay: Glasshouse herbicidal test, pre- and post-emergence, Avena fatua; conditions: 250 g/h, evaluated after 13 days, five point scale; for percentage damage caused to the plant, AVEFA POST: post-emergence; for percentage damage caused to the plant, AVEFA PRE: pre-emergence
Description: as §1

CC#Cc1cc(C)c(C2C(=O)CC3(CCN(C(=O)C(C)(F)F)CC3)CC2=O)c(C)c1 [Compound A22]
5 (5=80-100%): percentage damage caused to the plant, LOLPE POST [1] | percentage damage caused to the plant, LOLPE PRE [1] | percentage damage caused to the plant, SETFA POST [2] | percentage damage caused to the plant, SETFA PRE [2] | percentage damage caused to the plant, ALOMY POST [3] | percentage damage caused to the plant, ALOMY PRE [3] | percentage damage caused to the plant, ECHCG POST [4] | percentage damage caused to the plant, ECHCG PRE [4] | percentage damage caused to the plant, AVEFA POST [5] | percentage damage caused to the plant, AVEFA PRE [5]

CC#Cc1cc(C)c(C2C(=O)CC3(CCN(C(=O)C(C)(C)F)CC3)CC2=O)c(C)c1 [Compound A23]
5 (5=80-100%): percentage damage caused to the plant, LOLPE POST [1] | percentage damage caused to the plant, LOLPE PRE [1] | percentage damage caused to the plant, SETFA POST [2] | percentage damage caused to the plant, SETFA PRE [2] | percentage damage caused to the plant, ALOMY POST [3] | percentage damage caused to the plant, ALOMY PRE [3] | percentage damage caused to the plant, ECHCG POST [4] | percentage damage caused to the plant, ECHCG PRE [4] | percentage damage caused to the plant, AVEFA POST [5] | percentage damage caused to the plant, AVEFA PRE [5]

CC#Cc1cc(C)c(C2C(=O)CC3(CCN(C(=O)C(C)C(F)(F)F)CC3)CC2=O)c(C)c1 (centres unmarked) [Compound A24]
5 (5=80-100%): percentage damage caused to the plant, LOLPE POST [1] | percentage damage caused to the plant, LOLPE PRE [1] | percentage damage caused to the plant, SETFA POST [2] | percentage damage caused to the plant, SETFA PRE [2] | percentage damage caused to the plant, ALOMY POST [3] | percentage damage caused to the plant, ALOMY PRE [3] | percentage damage caused to the plant, ECHCG POST [4] | percentage damage caused to the plant, ECHCG PRE [4] | percentage damage caused to the plant, AVEFA POST [5] | percentage damage caused to the plant, AVEFA PRE [5]

CC#Cc1cc(C)c(C2C(=O)CC3(CCN(C(=O)CC(F)(F)F)CC3)CC2=O)c(C)c1 [Compound A25]
5 (5=80-100%): percentage damage caused to the plant, LOLPE POST [1] | percentage damage caused to the plant, LOLPE PRE [1] | percentage damage caused to the plant, SETFA POST [2] | percentage damage caused to the plant, SETFA PRE [2] | percentage damage caused to the plant, ALOMY POST [3] | percentage damage caused to the plant, ALOMY PRE [3] | percentage damage caused to the plant, ECHCG POST [4] | percentage damage caused to the plant, ECHCG PRE [4] | percentage damage caused to the plant, AVEFA POST [5] | percentage damage caused to the plant, AVEFA PRE [5]

CC#Cc1cc(C)c(C2C(=O)CC3(CCN(C(=O)C(F)(F)C(F)(F)F)CC3)CC2=O)c(C)c1 [Compound A26]
5 (5=80-100%): percentage damage caused to the plant, LOLPE POST [1] | percentage damage caused to the plant, LOLPE PRE [1] | percentage damage caused to the plant, SETFA POST [2] | percentage damage caused to the plant, SETFA PRE [2] | percentage damage caused to the plant, ALOMY POST [3] | percentage damage caused to the plant, ALOMY PRE [3] | percentage damage caused to the plant, ECHCG POST [4] | percentage damage caused to the plant, ECHCG PRE [4] | percentage damage caused to the plant, AVEFA POST [5] | percentage damage caused to the plant, AVEFA PRE [5]
